# Data: patent publication US20050186287A1, “Copper agonist that binds on the copper binding site of APP and/or exerts an inhibiting effect on the release of amyloid Abeta peptide” (priority 1999, published 2005)
# What was measured:
# [1] = test system: CHO cells stably transfected with human APP695; assay: Aβ production in CHO cells stably transfected with human APP695, cell variant not given; assay type: cell-based
# Method: The employed Zn^2+ concentrations were 10 μM, 50 μM, 100 μM and 200 μM. Thereafter, it was studied from which concentration of Zn(II) the release of the Aβ peptide can be inhibited. The following experiments were carried out for this purpose:
# (1) CHO cells which were stably transfected with human APP695 were incubated in MEM medium with the above-mentioned concentrations of Zn(II) (10 to 200 μM in PBS). CHO cells with copper ions (10 to 50 μM in PBS) or without any addition were incubated as controls. The production of Aβ (total), Aβ40 and Aβ42 was determined qualitatively and quantitatively with polyclonal and monoclonal antibodies. APP, Aβ and p3 were detected according to biosynthetic labeling with ^35S methionine as followed. The stably transfected CHO cells, which were incubated as mentioned above with the respective substances, were incubated for four hours with 220 μCi ^35S methionine as follows. […] The protein concentrations were determined beforehand using the protein detection kit from BioRad company and the amount of incorporated radioactivity was determined via scintillation counting. […] The supernatants were incubated with the above mentioned polyclonal APP and Aβ antibodies overnight at 4° C., the immunocomplexes formed were isolated with protein A sepharose and analyzed according to the method described in Ida et al., J. Biol. Chem. 271, pp. 22908-22914.
# [2] = test system: CHO cells; assay: Viability of CHO cells (LDH outflow); assay type: cell-based; conditions: different copper concentrations, 4 h labeling, entire experiment
# Method: During the labeling period copper chloride or zinc chloride (concentrations: 5 μM to 200 μM) were added to the culturing medium. D(−)-penicillamine (PEN; Sigma), bathocuproin-disulfonate (BC; Aldrich) and 1,10-phenanthroline ([…]; Sigma) were added to the medium up to a final concentration of 100 μM (PEN and BC) or 200 μM (PEN). The viability of the cells was measured by means of the lactate dehydrogenase (LDH) outflow into the culture (41). The LDH outflow was measured as enzyme activity (units/liter) after 2 and 4 hours in the medium of 70% confluent monolayers of CHO cells in “Eagle” medium modified according to Dulbecco (DMEM)
# For investigating the regulation of the APP metabolism by copper ions, CHO cells stably transfected with APP695 were labeled for 4 hours with ^35S-labeled methionine in the presence of different copper concentrations and following immunoprecipitation with polyclonal antibodies which detect APP (22734/6) or detect Aβ and p3 ([…]), the secretions of the APP ectodomain, of Aβ and p3 were measured. […] APP695 derivatives released in conditioned medium were detected as bands of 105 and 97.5 kDa (FIG. 3b), they probably differing in that the upper band has a higher content of sialic acids.
# [3] = test system: APP processing in CHO cells (K1, APP695); assay: APP processing in parental CHO-K1 cells transfected with APP695 (35S-methionine labeling, immunoprecipitation); assay type: cell-based, human
# From the text: (§1) CHO cells were transfected with a c-myc-tagged APP695 vector (Peraus et al., J. Neurosci 17, page 7714-7724 (1997)) or with the expression vector (pcDNA3) by means of a highly efficient calcium phosphate transfection (Chen et al., Biotechniques 6, pages 632-638 (1988). The pSP65 (Invitrogen company) N-tag-APP 695 DNA was cloned into the vector pcDNA3 (Invitrogen/ITC Biotechnology, Heidelberg) using the SmaI or EcoRV cloning sites. The transfection efficiency was checked by means of immunoprecipitation of APP with polyclonal rabbit-anti-c-myc antibody (18/47; produced against the amino acid sequence EQKLISEEDL of the c-myc sequence; from Eurogentec, Seraing, Belgium) and immunoblots using the monoclonal mouse antibody 22C11 (Boehringer Mannheim) in the “ECL” detection system (Amersham, Braunschweig). The parental CHO-K1 cells and the copper-resistant cell variant CUR3 were cultured at 37° C. in “Eagles” medium (BME), to which 2 mM L-glutamine, 0.1 mM proline, 20 mM HEPES and 10% fetal calf serum (Boehringer Ingelheim) were added. The basic copper concentration was 0.8 μM. CUR3 cells were cultured in a medium with 200 μM of copper added.
# (§2) Stably transfected CHO cells of a culture dish (60 mm) were treated for 4 hours with 2 ml essential minimum medium (MEM) which contained no methionine (Sigma company, Munich) and was supplemented with 220 μCi [^35S]methionine (Amersham company, Braunschweig) and 5% N2. The conditioned medium (CM) and the cells were collected and immunorepcipitated. The protein concentrations were determined beforehand by means of a “BioRad” protein assay (Bradford et al., Anal. Biochem. 72, pages 248-254 (1976)) or the radioactively labeled proteins were precipitated with 10% trichloroacetic acid (TCA) and the incorporated [^35S]methionine was measured (Beckman LS 6000IC). The cells were lyzed in extraction buffer which contained 50 mM Tris-CHl (pH value 7.5), 150 mM NaCl, 2 mM EDTA, 2% triton X-100, 2% NP40, 10 μg/ml aprotinin and 10 μg/ml leupeptin. For removing cell debris, the lysate and the medium were centrifuged for 10 minutes at 13,000×g and the medium was adjusted to 25 mM Tris-CHl (pH value 8.5), 1 mM PMSF, 10 μg/ml aprotinin, 10 μg/ml leupeptin, 0.5% triton X-100 and 0.5% NP40. The solubilized proteins were diluted in 100 mM Tris-HCl (pH value 7.5), 300 mM NaCl and 4 mM EDTA at a concentration of 1:2. The supernatants were incubated overnight at 4° C. with APP antibodies with end-over-end rotation in an overhead shaker. In some experiments, the resulting supernatants were then analyzed using Aβ antiserum. Immunocomplexes were obtained with protein A sepharose and analzyed as described in (Weidemann et al., Cell 57, pages 115-126 (1989)).
# (§3) For detecting APP, polyclonal rabbit antibodies directed against recombinant Fd-APP770 (antiserum 22734/6 against the amino acid residues 18-687 of APP770 or antiserum 23850/6 against the APP amino acid residues 18-491 (FIG. 1) were diluted at a concentration of 1:500 for precipitation. The antisera were produced in a laboratory according to standard methods known to the person skilled in the art. Aβ, p3.5 and […] were recognized by the polyclonal antibodies 830 (diluation 1:50; Aβ, p3.5 and p3 were likewise precipitated) which had been produced against a synthetic peptide corresponding to the Aβ amino acid residues 1-40 (FIG. 1). Aβ and its derivatives were separated by 10-20% Tris-tricin-polyacrylamide gels and APP using 7% Tris-glycin-polyacrylamide gels or 7% Tris-tricin-polyacrylamide gels. For immunoblots cell extracts and extracellular medium were precipitated with 10% TCA, washed with acetone and dissolved in sample buffer. After the electrophoresis, the gels were further processed as described in (Simons et al., J. Neurosci 16, pages 899-908 (1996)) and quantified with the “Fuji-Bas-PhosphorImager” system. The data were expressed as average values +/− standard deviation and, unless indicated otherwise, they represent the result of at least two separate experiments. […]
# [4] = test system: APP processing in CHO cells (CUR3, APP695); assay: APP processing in copper-resistant CHO-CUR3 cells transfected with APP695 (35S-methionine labeling, immunoprecipitation); assay type: cell-based, human
# From the text: as §1, §2, §3
# [5] = test system: Aβ peptide with the human sequence; assay: Aβ production in CNS and blood of transgenic mice given Zn(II); assay type: in vivo; conditions: orally, i.v., i.p., s.c. and i.c.
# Method: (2) Primary neurons were isolated from transgenic mice which expressed the Aβ peptide with the human sequence, and their Aβ production was determined as described in (1).
# (3) The above mentioned Zn(II) concentrations in PBS were applied to transgenic mice orally, i.v., i.p., s.c. and i.c. (see (2)) and the Aβ production was determined in the CNS and in the blood (which was withdrawn from the caudal vein) as outlined above in (1). The serum obtained from the caudal vein of the mice (150-200 μl) is filled using PBS buffer up to a volume of 500 μl and incubated with 5 μg monoclonal antibody WO-2 (Ida et al., supra) and 20 μl of a 1:1 suspension of protein G sepharose overnight at 4° C. on an overhead shaker. The resulting supernatant is then incubated with polyclonal antibodies (22734/6) against APP and the immunocomplexes are analyzed as described above in (1). The Aβ immunocomplexes are separated by means of 12% bis-tricin Novex gels in accordance with the instructions of the manufacturer and the relevant molecular weight range is analyzed after the transfer of the proteins to a nitrocellulose filter (380 mA at 4° C. for 40 minutes) with the monoclonal antibody WO-2 using the ECL technique according to Ida et al. The result here was also that a decrease of the Aβ production could be obtained from a concentration of 50 μM Zn(II).
structure (smiles),measurement,setting,value
[Ca+2] [Ca(II)],Aβ production,"[1]; above 200 μM, detection limit reached",no further decrease
"[Cl][Cu][Cl] [Cu(II), copper chloride]",viability of the cell lines,[2],no reduced viability
same,"Aβ, [%] increase/decrease as compared to standard conditions","[3]; K1 cells, 10 μM Cu(II), 4 h",20%
same,"p3, [%] increase/decrease as compared to standard conditions","[3]; K1 cells, 10 μM Cu(II), 4 h",154%
same,"APP695, [%] increase/decrease as compared to standard conditions","[3]; K1 cells, 10 μM Cu(II), 4 h, cell lysate (cAPP)",295%
same,"SAPP695c, [%] increase/decrease as compared to standard conditions","[3]; K1 cells, 10 μM Cu(II), 4 h, soluble APP695 in medium",475%
same,sAPP751/770 level,"[3]; K1 cells, 10 μM copper, endogenous KPI-containing isoforms",275%
same,Aβ levels,"[3]; K1 cells, Cu(II) concentrations below the basal level (0.8 μM)",increased drastically
same,Cu(II) concentration at which the increase in sAPP695 reached a maximum,"[3]; K1 cells, conditioned medium",10 µM
same,Aβ production,"[3]; K1 cells, increasing copper concentrations",below the detection limit
same,"APP695, [%] increase/decrease as compared to standard conditions","[4]; 50 μM Cu(II), 4 h, cell lysate (cAPP)",550%
same,"p3, [%] increase/decrease as compared to standard conditions","[4]; 50 μM Cu(II), 4 h, medium",270%
same,"Aβ, [%] increase/decrease as compared to standard conditions","[4]; 50 μM Cu(II), 4 h, medium, % of basal concentration",20%
same,"SAPP695c, [%] increase/decrease as compared to standard conditions","[4]; 50 μM Cu(II), 4 h, soluble APP695 in conditioned medium, relative to basal medium (0.8 μM Cu)",265%
same,Aβ levels,[4]; Cu(II) concentrations below the basal level (0.8 μM),increased drastically
same,Aβ concentration,[4]; above 100 μM copper,hardly detectable
same,secretion of p3,[4]; between 20 μM and 50 μM copper in the medium,270%
same,Cu(II) concentration at which the increase in sAPP695 reached a maximum,[4]; conditioned medium,50 µM
same,percentage of cAPP,[4]; copper concentration of 50 μM exceeded in the medium,550%
same,p3.5 concentration,[4]; increasing copper (50 μM and above),strongly lowered
"[Cl-].[Cl-].[Zn+2] [Zn(II), zinc chloride]",secretion of APP,"[3]; CHO-K1 cells, Zn(II) concentrations above 50 μM",lowered secretion
same,Aβ production reduced by,"[3]; K1 cells, 50 μM Zn(II)",20%
same,Aβ production reduced by,"[3]; K1 cells, 200 μM Zn(II)",60%
same,Aβ production reduced by,[4]; 50 μM Zn(II),60%
same,Aβ production reduced by,[4]; 100 μM Zn(II),90%
same,Aβ production reduced by,[4]; 200 μM Zn(II),99%
same,secretion of APP,[4]; Zn(II) concentrations above 50 μM,lowered secretion
same,Zn(II) concentration from which Aβ production could be reduced drastically,"[1]; CHO cells, MEM medium, 10 to 200 μM Zn(II) tested",≥ 50 µM
same,Zn(II) concentration from which a decrease of the Aβ production could be obtained,[5],≥ 50 µM
